Patent US10961200B2, “Small molecule inhibitors of lactate dehydrogenase and methods of use thereof” (THE UNITED STATES OF AMERICA, AS REPRESENTED BY THE …, priority 2014, dated 2021)
Where two headings read alike, the source gives them in different places.

How the values were obtained:
MiaPaCa2 cells = assay: cell-based HT lactate assay, colorimetric/fluorometric detection (inhibition of lactate production); conditions: class symbols, 0 to 3 pluses
Description: Cell-based HT Lactate assay is a miniaturized Biovision Lactate Colorimetric/Fluorometric Assay Kit (Cat #K607-100). The assay is roughly a 3.5 hour assay run in a 1536 plate format. Cell number optimization should be run for each cell line to achieve an optimal number in which lactate production equals roughly 90% of the standard curve range. Cell number per well optimization has been performed with the following cell lines: MiaPaCa2—500 cells/well, SNU398—500 cells/well, and P493—500 cells/well.
The lactate activity in Table 8 is represented by 0 to 3 pluses as follows: +++<1 μM; ++1-10 μM; +10-57 μM; and −>57 μM.

Human LDHA = Human LDHA (Homo sapiens (Human), UniProt P00338); assay: human LDHA primary biochemical assay (resazurin/diaphorase coupled, fluorescence)
Excerpt: Test compounds were placed in a Greiner Bio-One (Monroe, N.C.) 1536-well black solid bottom assay plate. 200 millimolar (mM) Tris HCl, pH 7.4, 100 micromolar […] EDTA and 0.01% TWEEN-20™, final concentration, was used as the assay buffer. The LDHA reagent was 2 nanomolar (nM) Human LDHA (Meridian Life Science, Inc., Memphis, Tenn.), final concentration, in assay buffer.

[1] = LDHA inhibitory activity, assay of Example 1, activity level classes
[2] = read-out: Inhibitory activity IC50
[3] = LDHA inhibitory activity, activity level based on IC50 (Table 7)

| IC50 (MiaPaCa2 cells; Homo sapiens, MIA PaCa-2) [nM] | SMILES | other results |
| --- | --- | --- |
| 10000 to 57000 | NS(=O)(=O)c1ccc(Cc2c(-c3ccc(F)c(F)c3)nn(-c3nc(C(=O)O)cs3)c2I)cc1 [Compound 43, 2-(3-(3,4-difluorophenyl)-5-iodo-4-(4-sulfamoylbenzyl)-1H-pyrazol-1-yl)thiazole-4-carboxylic acid] | IC50 (Human LDHA; [1]): < 100 nM |
| > 57000 | NS(=O)(=O)c1ccc(Cc2c(-c3ccc(F)c(F)c3)nn(-c3nc(C(=O)O)cs3)c2O)cc1 [Compound 53, 2-(3-(3,4-difluorophenyl)-5-hydroxy-4-(4-sulfamoylbenzyl)-1H-pyrazol-1-yl)thiazole-4-carboxylic acid] |  |
| > 57000 | NS(=O)(=O)c1ccc(Cc2c(-c3cccc(-c4ccccc4)c3)nn(-c3nc(C(=O)O)cs3)c2O)cc1 [Compound 54, 2-(3-([1,1′-biphenyl]-3-yl)-5-hydroxy-4-(4-sulfamoylbenzyl)-1H-pyrazol-1-yl)thiazole-4-carboxylic acid] |  |
| 1000 to 10000 | NS(=O)(=O)c1ccc(Cc2c(-c3ccccc3)nn(-c3nc(C(=O)O)cs3)c2C#CC2CC2)cc1 [Compound 160, 2-(5-(cyclopropylethynyl)-3-phenyl-4-(4-sulfamoylbenzyl)-1H-pyrazol-1-yl)thiazole-4-carboxylic acid] | IC50 (Human LDHA; [1]): < 100 nM |
| < 1000 | NS(=O)(=O)c1ccc(Cc2c(-c3cccc(-c4ccccc4)c3)nn(-c3nc(C(=O)O)cs3)c2C2CC2)c(F)c1 [Compound 183, 2-(3-([1,1′-biphenyl]-3-yl)-5-cyclopropyl-4-(2-fluoro-4-sulfamoylbenzyl)-1H-pyrazol-1-yl)thiazole-4-carboxylic acid] | IC50 (Human LDHA; [1]): < 100 nM |
| < 1000 | NS(=O)(=O)c1ccc(Cc2c(-c3cccc(-c4ccccc4)c3)nn(-c3nc(C(=O)O)cs3)c2CCC2CC2)cc1 [Compound 203, 2-(3-([1,1′-biphenyl]-3-yl)-5-(2-cyclopropylethyl)-4-(4-sulfamoylbenzyl)-1H-pyrazol-1-yl)thiazole-4-carboxylic acid] | IC50 (Human LDHA; [1]): < 100 nM |
| 1000 to 10000 | NS(=O)(=O)c1ccc(Cc2c(C3CC3(F)F)nn(-c3nc(C(=O)O)cs3)c2-c2cccc(-c3ccccc3)c2)cc1 (stereo not drawn) [Compound 206, 2-(5-([1,1′-biphenyl]-3-yl)-3-(2,2-difluorocyclopropyl)-4-(4-sulfamoylbenzyl)-1H-pyrazol-1-yl)thiazole-4-carboxylic acid] | IC50 (Human LDHA; [2]): 1000 to 57000 nM |
| 1000 to 10000 | NS(=O)(=O)c1ccc(Cc2c(-c3cccc(-c4ccccc4)c3)nn(-c3nc(C(=O)O)cs3)c2CC2CC2(F)F)cc1 (stereo not drawn) [Compound 207, 2-(3-([1,1′-biphenyl]-3-yl)-5-((2,2-difluorocyclopropyl)methyl)-4-(4-sulfamoylbenzyl)-1H-pyrazol-1-yl)thiazole-4-carboxylic acid] | IC50 (Human LDHA; [1]): < 100 nM |
| > 57000 | Cn1c(C(=O)O)cnc1-n1cc(Cc2ccc(S(N)(=O)=O)cc2)c(-c2ccccc2)n1 [Compound 212, 1-methyl-2-(3-phenyl-4-(4-sulfamoylbenzyl)-1H-pyrazol-1-yl)-1H-imidazole-5-carboxylic acid] | IC50 (Human LDHA; [1]): > 57000 nM |
| > 57000 | NS(=O)(=O)c1ccc(Cc2cn(-c3cc(C(=O)O)cs3)nc2-c2ccccc2)cc1 [Compound 213, 5-(3-phenyl-4-(4-sulfamoylbenzyl)-1H-pyrazol-1-yl)thiophene-3-carboxylic acid] | IC50 (Human LDHA; [2]): 1000 to 57000 nM |
| 1000 to 10000 | Cn1cc(-c2cc(-c3nn(-c4nc(C(=O)O)cs4)c(CC4CC4)c3Cc3ccc(S(N)(=O)=O)cc3F)ccc2F)cn1 [Compound 214, 2-(5-(cyclopropylmethyl)-3-(4-fluoro-3-(1-methyl-1H-pyrazol-4-yl)phenyl)-4-(2-fluoro-4-sulfamoylbenzyl)-1H-pyrazol-1-yl)thiazole-4-carboxylic acid] | IC50 (Human LDHA; [2]): < 100 nM |
| 10000 to 57000 | Cc1noc(C)c1-c1cc(-c2nn(-c3nc(C(=O)O)cs3)c(CC3CC3)c2Cc2ccc(S(N)(=O)=O)cc2F)ccc1F [Compound 215, 2-(5-(cyclopropylmethyl)-3-(3-(3,5-dimethylisoxazol-4-yl)-4-fluorophenyl)-4-(2-fluoro-4-sulfamoylbenzyl)-1H-pyrazol-1-yl)thiazole-4-carboxylic acid] | IC50 (Human LDHA; [2]): < 100 nM |
| 1000 to 10000 | Cn1cc(-c2cc(-c3nn(-c4nc(C(=O)O)cs4)c(CC4CC4)c3Cc3ccc(S(N)(=O)=O)c(F)c3)ccc2F)cn1 [Compound 217, 2-(5-(cyclopropylmethyl)-3-(4-fluoro-3-(1-methyl-1H-pyrazol-4-yl)phenyl)-4-(3-fluoro-4-sulfamoylbenzyl)-1H-pyrazol-1-yl)thiazole-4-carboxylic acid] | IC50 (Human LDHA; [2]): < 100 nM |
| 1000 to 10000 | Cc1noc(C)c1-c1cc(-c2nn(-c3nc(C(=O)O)cs3)c(CC3CC3)c2Cc2ccc(S(N)(=O)=O)c(F)c2)ccc1F [Compound 219, 2-(5-(cyclopropylmethyl)-3-(3-(3,5-dimethylisoxazol-4-yl)-4-fluorophenyl)-4-(3-fluoro-4-sulfamoylbenzyl)-1H-pyrazol-1-yl)thiazole-4-carboxylic acid] | IC50 (Human LDHA; [2]): < 100 nM |
|  | N[S+](=O)([O-])c1ccc(Cc2c(-c3cccc(-c4ccccc4)c3)nn(-c3nc(C(=O)O)cs3)c2CC2CC2)cc1 [Compound 276] | IC50 (MiaPaCa2 cells): < 1000 nM |
| 1000 to 10000 | NS(=O)(=O)c1ccc(Cc2c(-c3ccc(F)c(OC4CC4)c3)nn(-c3nc(C(=O)O)cs3)c2CC2CC2)cc1F [Compound 471, 2-(3-(3-cydopropoxy-4-fluorophenyl)-5-(cyclopropylmethyl)-4-(3-fluoro-4-sulfamoylbenzyl)-1H-pyrazol-1-yl)thiazole-4-carboxylic acid] |  |
| 1000 to 10000 | NS(=O)(=O)c1ccc(Cc2c(-c3cccc(Nc4ccccc4)c3)nn(-c3nc(C(=O)O)cs3)c2CC2CC2)cc1 [Compound 485, 2-(5-(cyclopropylmethyl)-3-(3-(phenylamino)phenyl)-4-(4-sulfamoylbenzyl)-1H-pyrazol-1-yl)thiazole-4-carboxylic acid] |  |
| 1000 to 10000 | CC(C)Oc1cccc(-c2nn(-c3nc(C(=O)O)cs3)c(CC3CC3)c2Cc2ccc(S(N)(=O)=O)cc2)c1 [Compound 504, 2-(5-(cyclopropylmethyl)-3-(3-isopropoxyphenyl)-4-(4-sulfamoylbenzyl)-1H-pyrazol-1-yl)thiazole-4-carboxylic Acid] |  |
|  | NS(=O)(=O)c1ccc(Cc2c(-c3ccc(F)c(/C=C/C4CCCC4)c3)nn(-c3nc(C(=O)O)cs3)c2CC2CC2)cc1F [Compound 535, (E)-2-(3-(3-(2-cyclopentylvinyl)-4-fluorophenyl)-5-(cyclopropylmethyl)-4-(3-fluoro-4-sulfamoylbenzyl)-1H-pyrazol-1-yl)thiazole-4-carboxylic acid] | IC50 (Human LDHA; [3]): < 100 nM |
|  | CCOC(=O)c1csc(-n2nc(-c3ccc(F)c(C#CC4CCCC4)c3)c(Cc3cccc(S(N)(=O)=O)c3)c2CC2CC2)n1 [Compound 536, ethyl 2-(3-(3-(cyclopentylethynyl)-4-fluorophenyl)-5-(cyclopropylmethyl)-4-(3-sulfamoylbenzyl)-1H-pyrazol-1-yl)thiazole-4-carboxylate] | IC50 (Human LDHA; [3]): > 57000 nM |
|  | CC(C)CC#Cc1cc(-c2nn(-c3nc(C(=O)O)cs3)c(CC3CC3)c2Cc2ccc(S(N)(=O)=O)c(F)c2)ccc1F [Compound 538, 2-(5-(cyclopropylmethyl)-3-(4-fluoro-3-(4-methylpent-1-yn-1-yl)phenyl)-4-(3-fluoro-4-sulfamoylbenzyl)-1H-pyrazol-1-yl)thiazole-4-carboxylic acid] | IC50 (Human LDHA; [3]): < 100 nM |
|  | CCCC#Cc1cc(-c2nn(-c3nc(C(=O)O)cs3)c(CC3CC3)c2Cc2ccc(S(N)(=O)=O)c(F)c2)ccc1F [Compound 539, 2-(5-(cyclopropylmethyl)-3-(4-fluoro-3-(pent-1-yn-1-yl)phenyl)-4-(3-fluoro-4-sulfamoylbenzyl)-1H-pyrazol-1-yl)thiazole-4-carboxylic acid] | IC50 (Human LDHA; [3]): < 100 nM |
|  | CCCCC#Cc1cc(-c2nn(-c3nc(C(=O)O)cs3)c(CC3CC3)c2Cc2ccc(S(N)(=O)=O)c(F)c2)ccc1F [Compound 540, 2-(5-(cyclopropylmethyl)-3-(4-fluoro-3-(hex-1-yn-1-yl)phenyl)-4-(3-fluoro-4-sulfamoylbenzyl)-1H-pyrazol-1-yl)thiazole-4-carboxylic acid] | IC50 (Human LDHA; [3]): < 100 nM |

| SMILES | IC50 (MiaPaCa2 cells; Homo sapiens, MIA PaCa-2) [nM] | other results |
| --- | --- | --- |
| Cc1c(Cc2ccc(S(N)(=O)=O)cc2)c(-c2ccccc2)nn1-c1nc(C(=O)O)cs1 [Compound 47, 2-(5-methyl-3-phenyl-4-(4-sulfamoylbenzyl)-1H-pyrazol-1-yl)thiazole-4-carboxylic acid] | > 57000 | IC50 (Human LDHA; [1]): < 100 nM |
| Cc1ccc(-c2cc(-c3nn(-c4nc(C(=O)O)cs4)c(CC4CC4)c3Cc3ccc(S(N)(=O)=O)cc3F)ccc2F)cc1 [Compound 472, 2-(5-(cyclopropylmethyl)-3-(6-fluoro-4′-methyl-[1,1′-biphenyl]-3-yl)-4-(2-fluoro-4-sulfamoylbenzyl)-1H-pyrazol-1-yl)thiazole-4-carboxylic acid] | < 1000 |  |
| NS(=O)(=O)c1ccc(Cc2c(-c3cccc(OC4CCCC4)c3)nn(-c3nc(C(=O)O)cs3)c2CC2CC2)cc1 [Compound 477, 2-(3-(3-(cyclopentyloxy)phenyl)-5-(cyclopropylmethyl)-4-(4-sulfamoylbenzyl)-1H-pyrazol-1-yl)thiazole-4-carboxylic Acid] | < 1000 |  |
